Source: patent publication US11078540B2, “Methods of diagnosing and treating cancer in patients having or developing resistance to a first cancer therapy” (DANA-FARBER CANCER INSTITUTE, INC., priority 2010, dated 2021)
One block for each compound: values may come before it.

Experiments:
[1] = tested on: pERK1/2 (T202/Y204), pMEK1/2 (S217/221); experiment: Immunoblots and immunoprecipitations of MAPK pathway proteins in treated cells; format: cell-based, human; settings: for pERK expression, in combination with PLX4720: ectopic COT expression, 1 μM each, versus single-agent PLX4720 up to 10 μM
Description: Cells were washed twice with ice-cold PBS and lysed with 1% NP-40 buffer [150 mM NaCl, 50 mM Tris pH 7.5, 2 mM EDTA pH 8, 25 mM NaF and 1% NP-40] containing 2× protease inhibitors (Roche) and 1× Phosphatase Inhibitor Cocktails I and II (CalBioChem). Lysates were quantified (Bradford assay), normalized, reduced, denatured (95° C.) and resolved by SDS gel electrophoresis on 10% Tris/Glycine gels (Invitrogen). Protein was transferred to PVDF membranes and probed with primary antibodies recognizing pERK1/2 (T202/Y204), pMEK1/2 (S217/221), MEK1/2, MEK1, MEK2, C-RAF (rabbit host), pC-RAF (pS338) (Cell Signaling Technology; 1:1,000), V5-HRP (Invitrogen; (1:5,000), COT (1:500), B-RAF (1:2,000), Actin (1:1,000), Actin-HRP (1:1,000; Santa Cruz)), C-RAF (mouse host; 1:1,000; BD Transduction Labs), Vinculin (Sigma; 1:20,000), AXL (1:500; R&D Systems). After incubation with the appropriate secondary antibody (anti-rabbit, anti-mouse IgG, HRP-linked; 1:1,000 dilution, Cell Signaling Technology or anti-goat IgG, HRP-linked; 1:1,000 dilution; Santa Cruz), proteins were detected using chemiluminescence (Pierce). Immunoprecipitations were performed overnight at 4° C. in 1% NP-40 lysis buffer, as described above, at a concentration of 1 μg/μl total protein using an antibody recognizing C-RAF (1:50; Cell Signaling Technology). Antibody: antigen complexes were bound to Protein A agarose (25 μL, 50% slurry; Pierce) for 2 hrs. at 4° C. Beads were centrifuged and washed three times in lysis buffer and eluted and denatured (95° C.) in 2× reduced sample buffer (Invitrogen). Immunoblots were performed as above. Phospho-protein quantification was performed using NIH Image J.

B-RAF^V600E cell lines = experiment: Pharmacologic growth inhibition assays (WST1 viability, GI50, single-dose studies); format: cell-based, human; settings: for cell growth, in combination with PLX4720: ectopic COT expression, 1 μM each, versus single-agent PLX4720 up to 10 μM
Description: Cultured cells were seeded into 96-well plates (3,000 cells per well) for all melanoma cell lines; 1,500 cells were seeded for A375. Twenty-four hours after seeding, serial dilutions of the relevant compound were prepared in DMSO added to cells, yielding final drug concentrations ranging from 100 μM to […], with the final volume of DMSO not exceeding 1%. Cells were incubated for 96 h following addition of drug. Cell viability was measured using the WST1 viability assay (Roche). Viability was calculated as a percentage of control (untreated cells) after background subtraction. A minimum of six replicates were performed for each cell line and drug combination. Data from growth-inhibition assays were modeled using a nonlinear regression curve fit with a sigmoid dose-response. […] Sigmoid-response curves that crossed the 50% inhibition point at or above 10 μM have GI50 values annotated as >10 μM. For single-dose studies, the identical protocol was followed, using a single dose of indicated drug (1 μM unless otherwise noted).

COT mRNA [2] = experiment: Quantitative RT-PCR of COT mRNA in lesion-matched biopsies of PLX4032-treated metastatic melanoma patients; format: in vivo, human; settings: 3 patients with metastatic B-RAF^V600E melanoma, on-treatment vs pre-treatment biopsies
Text: Biopsied tumor material consisted of discarded and de-identified tissue that was obtained with informed consent and characterized under protocol 02-017 (paired samples, Massachusetts General Hospital) and 07-087 (unpaired sample, Dana-Farber Cancer Institute). For paired specimens, ‘on-treatment’ samples were collected 10-14 days after initiation of PLX4032 treatment (Table 6).
(§1) mRNA was extracted from cell lines and fresh-frozen tumors using the RNeasy kit (Qiagen). Total mRNA was used for subsequent reverse transcription using the SuperScript III First-Strand Synthesis SuperMix (Invitrogen) for cell lines and unpaired tumor samples, and the SuperScript VILO cDNA synthesis kit (Invitrogen) for paired frozen tumor samples. 5 μl of the RT reaction was used for quantitative PCR using SYBR Green PCR Master Mix and gene-specific primers, in triplicate, using an ABI 7300 Real Time PCR System. Primers used for detection are as follows: […]

A375 cells [3] = experiment: High throughput ORF screening: viability of A375 expressing the kinase ORF collection in 1 μM PLX4720 relative to untreated, normalized to MEK1DD (Cell Titer-Glo); format: cell-based, human
Description: A375 melanoma cells were plated in 384-well microtiter plates (500 cells per well). The following day, cells were spin-infected with the lentivirally-packaged kinase ORF library in the presence of 8 ug/ml polybrene. 48 hours post-infection, media was replaced with standard growth media (2 replicates), media containing 1 μM PLX4720 (2 replicates, 2 time points) or media containing 10 ug/ml blasticidin (2 replicates). After four days and 6 days, cell growth was assayed using Cell Titer-Glo (Promega) according to manufacturer instructions. The entire experiment was performed twice.
Raw luminescence values were imported into Microsoft Excel. Infection efficiency was determined by the percentage of duplicate-averaged raw luminescence in blasticidin selected cells relative to non-selected cells. ORFs with an infection efficiency of less than 0.70 were excluded from further analysis along with any ORF having a standard deviation of >15,000 raw luminescence units between duplicates. To identify ORFs whose expression affects proliferation, we compared the duplicate-averaged raw luminescence of individual ORFs against the average and standard deviation of all control-treated cells via the z-score, or standard score, below,
[formula] where x=average raw luminescence of a given ORF, μ=the mean raw luminescence of all ORFs and σ=the standard deviation of the raw luminescence of all wells. Any individual ORF with a z-score>+2 or <−2 was annotated as affecting proliferation and removed from final analysis. Differential proliferation was determined by the percentage of duplicate-averaged raw luminescence values in PLX4720 (1 μM) treated cells relative to untreated cells. […] MEK1^DD normalized differential proliferation for each individual ORF was averaged across two duplicate experiments, with two time points for each experiment (day 4 and day 6). A z-score was then generated, as described above for average MEK1^DD normalized differential proliferation. ORFs with a z-score of >2 were considered hits and were followed up in the secondary screen.

A375 cells [4] = experiment: Secondary screen: PLX4720 GI50 in A375 expressing candidate resistance ORFs (WST-1); format: cell-based, human; settings: for GI50: Homo sapiens
Description: (§2) ORF-expressing lentivirus was added at a 1:10 dilution in the presence of 8 μg/ml polybrene, and centrifuged at 2250 RPM and 37° C. for 1 h. Following centrifugation, virus-containing media was changed to normal growth media and allowed to incubate for 18 h.

SKMEL28 cells = experiment: Secondary screen: PLX4720 GI50 in SKMEL28 expressing candidate resistance ORFs (WST-1); format: cell-based, human; settings: for GI50: Homo sapiens
Description: as §2

COT mRNA [5] = experiment: Quantitative RT-PCR of COT mRNA in cell lines; format: cell-based, human; settings: COT-expressing A375 cells, 1 μM PLX4720, 18 h
Description: as §1

COT = target: T1, COT (Homo sapiens, UniProt P41279); experiment: Inhibition of COT kinase activity in RPMI-7951 cells (MEK/ERK phosphorylation immunoblot); format: cell-based; settings: 1 h treatment
T1 construct: endogenous in cells; host or cells: RPMI-7951 (ATCC), MAP3K8/COT-amplified, B-RAF V600E melanoma line
Description: Cells were washed twice with ice-cold PBS and lysed with 1% NP-40 buffer [150 mM NaCl, 50 mM Tris pH 7.5, 2 mM EDTA pH 8, 25 mM NaF and 1% NP-40] containing 2× protease inhibitors (Roche) and 1× Phosphatase Inhibitor Cocktails I and II (CalBioChem). Lysates were quantified (Bradford assay), normalized, reduced, denatured (95° C.) and resolved by SDS gel electrophoresis on 10% Tris/Glycine gels (Invitrogen). Protein was transferred to PVDF membranes and probed with primary antibodies recognizing pERK1/2 (T202/Y204), pMEK1/2 (S217/221), MEK1/2, MEK1, MEK2, C-RAF (rabbit host), pC-RAF (pS338) (Cell Signaling Technology; 1:1,000), V5-HRP (Invitrogen; (1:5,000), COT (1:500), B-RAF (1:2,000), Actin (1:1,000), Actin-HRP (1:1,000; Santa Cruz)), C-RAF (mouse host; 1:1,000; BD Transduction Labs), Vinculin (Sigma; 1:20,000), AXL (1:500; R&D Systems). After incubation with the appropriate secondary antibody (anti-rabbit, anti-mouse IgG, HRP-linked; 1:1,000 dilution, Cell Signaling Technology or anti-goat IgG, HRP-linked; 1:1,000 dilution; Santa Cruz), proteins were detected using chemiluminescence (Pierce). […] Immunoblots were performed as above. Phospho-protein quantification was performed using NIH Image J.
Adherent RPMI-7951 cells were washed twice with 1×PBS and incubated overnight in serum-free growth media.

Compound: Cn1cnc2c(F)c(Nc3ccc(Br)cc3Cl)c(C(=O)NOCCO)cc21 [AZD6244]
pERK expression, in combination with PLX4720 [1]: more effectively than did single-agent PLX4720
cell growth, in combination with PLX4720 (B-RAF^V600E cell lines): more effectively than did single-agent PLX4720

Compound: O=C(NOCC1CC1)c1ccc(F)c(F)c1Nc1ccc(I)cc1Cl [CI-1040]
ERK phosphorylation ([1]; OUMS-23 and RPMI-7951, 1 μM CI-1040): sustained ERK phosphorylation
pERK expression, in combination with PLX4720 [1]: more effectively than did single-agent PLX4720
sensitivity to MEK inhibitor with ectopic COT expression (B-RAF^V600E cell lines; A375 and SKMEL28 cells ectopically expressing COT): decreased sensitivity
sensitivity of cell lines with aberrant MAP3K8/COT copy number/expression (B-RAF^V600E cell lines; B-RAF^V600E cell lines): insensitive
sensitivity to MEK inhibition (growth) (B-RAF^V600E cell lines; OUMS-23 and RPMI-7951 cell lines): refractory
cell growth, in combination with PLX4720 (B-RAF^V600E cell lines): more effectively than did single-agent PLX4720

Compound: CCCS(=O)(=O)Nc1ccc(F)c(C(=O)c2c[nH]c3ncc(-c4ccc(Cl)cc4)cc23)c1F [PLX4032]
COT mRNA expression concurrent with treatment (COT mRNA [2]): increased COT mRNA expression

Fold Change GI50 (A375 cells [4]; A375 expressing AXL ORF, relative to MEK1): 5.98 fold
Fold Change GI50 (A375 cells [4]; A375 expressing CRKL ORF, relative to MEK1): 59.8 fold
Fold Change GI50 (A375 cells [4]; A375 expressing ERBB2 ORF, relative to MEK1): 7.95 fold
Fold Change GI50 (A375 cells [4]; A375 expressing FGR ORF, relative to MEK1): 59.8 fold
Fold Change GI50 (A375 cells [4]; A375 expressing MAP3K8 ORF, relative to MEK1): 598 fold
Fold Change GI50 (A375 cells [4]; A375 expressing MEK1, (−) control): 1 fold
Fold Change GI50 (A375 cells [4]; A375 expressing MEK DD, (+) control, relative to MEK1): 28 fold
Fold Change GI50 (A375 cells [4]; A375 expressing PAK3 ORF, relative to MEK1): 2.95 fold
Fold Change GI50 (A375 cells [4]; A375 expressing PRKCE ORF, relative to MEK1): 26.4 fold
Fold Change GI50 (A375 cells [4]; A375 expressing PRKCH ORF, relative to MEK1): 24.7 fold
Fold Change GI50 (A375 cells [4]; A375 expressing RAF1 ORF, relative to MEK1): 598 fold
GI50 (A375 cells [4]; A-375, A375 expressing AXL ORF): 1000 nM
GI50 (A375 cells [4]; A-375, A375 expressing CRKL ORF): > 10000 nM
GI50 (A375 cells [4]; A-375, A375 expressing ERBB2 ORF): 1330 nM
GI50 (A375 cells [4]; A-375, A375 expressing FGR ORF): > 10000 nM
GI50 (A375 cells [4]; A-375, A375 expressing MAP3K8 ORF): > 100000 nM
GI50 (A375 cells [4]; A-375, A375 expressing MEK1, (−) control): 167 nM
GI50 (A375 cells [4]; A-375, A375 expressing MEK DD, (+) control): 4800 nM
GI50 (A375 cells [4]; A-375, A375 expressing PAK3 ORF): 493 nM
GI50 (A375 cells [4]; A-375, A375 expressing PRKCE ORF): 4410 nM
GI50 (A375 cells [4]; A-375, A375 expressing PRKCH ORF): 4140 nM
GI50 (A375 cells [4]; A-375, A375 expressing RAF1 ORF): ≥ 100000 nM
shift of the PLX4720 GI50 (A375 cells [4]; MAP3K8 (COT/Tpl2) and RAF1 (C-RAF) ORFs, in A375 and SKMEL28): 10-600 fold
GI50 (SKMEL28 cells; SK-MEL-28, SKMEL28 expressing AXL ORF): 1180 nM
GI50 (SKMEL28 cells; SK-MEL-28, SKMEL28 expressing CRKL ORF): 9700 nM
GI50 (SKMEL28 cells; SK-MEL-28, SKMEL28 expressing ERBB2 ORF): 1000 nM
GI50 (SKMEL28 cells; SK-MEL-28, SKMEL28 expressing FGR ORF): 5000 nM
GI50 (SKMEL28 cells; SK-MEL-28, SKMEL28 expressing MAP3K8 ORF): > 100000 nM
GI50 (SKMEL28 cells; SK-MEL-28, SKMEL28 expressing MEK1, (−) control): 1000 nM
GI50 (SKMEL28 cells; SK-MEL-28, SKMEL28 expressing MEK DD, (+) control): 8290 nM
GI50 (SKMEL28 cells; SK-MEL-28, SKMEL28 expressing PAK3 ORF): 904 nM
GI50 (SKMEL28 cells; SK-MEL-28, SKMEL28 expressing PRKCE ORF): 1910 nM
GI50 (SKMEL28 cells; SK-MEL-28, SKMEL28 expressing PRKCH ORF): 2260 nM
GI50 (SKMEL28 cells; SK-MEL-28, SKMEL28 expressing RAF1 ORF): ≥ 10000 nM
Fold Change GI50 (SKMEL28 cells; SKMEL28 expressing AXL ORF, relative to MEK1): 1.18 fold
Fold Change GI50 (SKMEL28 cells; SKMEL28 expressing CRKL ORF, relative to MEK1): 9.7 fold
Fold Change GI50 (SKMEL28 cells; SKMEL28 expressing ERBB2 ORF, relative to MEK1): 1 fold
Fold Change GI50 (SKMEL28 cells; SKMEL28 expressing FGR ORF, relative to MEK1): 5 fold
Fold Change GI50 (SKMEL28 cells; SKMEL28 expressing MAP3K8 ORF, relative to MEK1): ~100 fold
Fold Change GI50 (SKMEL28 cells; SKMEL28 expressing MEK1, (−) control): 1 fold
Fold Change GI50 (SKMEL28 cells; SKMEL28 expressing MEK DD, (+) control, relative to MEK1): 8.29 fold
Fold Change GI50 (SKMEL28 cells; SKMEL28 expressing PAK3 ORF, relative to MEK1): 0.9041 fold
Fold Change GI50 (SKMEL28 cells; SKMEL28 expressing PRKCE ORF, relative to MEK1): 1.91 fold
Fold Change GI50 (SKMEL28 cells; SKMEL28 expressing PRKCH ORF, relative to MEK1): 2.26 fold
Fold Change GI50 (SKMEL28 cells; SKMEL28 expressing RAF1 ORF, relative to MEK1): ≥10 fold
Compound: CCCS(=O)(=O)Nc1ccc(F)c(C(=O)c2c[nH]c3ncc(Cl)cc23)c1F [PLX4720]
viability at 1 µM (A375 cells [3]; Homo sapiens, A-375, A375 expressing kinase ORF collection, 1 μM PLX4720, read-out: relative viability, mean of all ORFs, normalized to MEK1DD): 44.3%
endogenous C-RAF:B-RAF heterodimers ([1]; A375 cells, immunoprecipitated C-RAF, 1 μM PLX4720, 18 hr): measurable and inducible
COT protein ([1]; COT-expressing A375 cells): dose-dependent increase
ERK phosphorylation in the context of B-RAF inhibition ([1]; OUMS-23, RPMI-7951 and M307): sustained ERK phosphorylation
phosphorylation of ERK/MEK ([1]; OUMS-23, across a dose range of PLX4720): constitutive phosphorylation
Fold Change GI50 (A375 cells [4]; A375, Mock control, relative to MEK1): 0.91 fold
GI50 (A375 cells [4]; A-375, A375, Mock control): 153 nM
GI50 (SKMEL28 cells; SK-MEL-28, SKMEL28, Mock control): 529 nM
Fold Change GI50 (SKMEL28 cells; SKMEL28, Mock control, relative to MEK1): 1.89 fold
ectopic COT mRNA levels (COT mRNA [5]): without affecting
GI50 (B-RAF^V600E cell lines; Homo sapiens, OUMS-23, RPMI-7951 and M307 (COT-expressing B-RAF^V600E cell lines)): 8000 to 10000 nM

MEK and ERK phosphorylation (COT): dose-dependent suppression
Compound: CN(c1cccnc1)c1cc2c(Nc3ccc(F)c(Cl)c3)c(C#N)cnc2cn1 [small molecule COT kinase inhibitor, 4-(3-Chloro-4-fluorophenylamino)-6-(pyridin-3-yl-methylamino)-3-cyano-[1,7]-naphthyridine]

Compound: CCL4
Z-SCORE of average differential proliferation (1 μM PLX4720/control) (A375 cells [3]; A375 cells expressing the named ORF, relative to mean of all ORFs (44.26%, SD 7.19%)): −0.13
AVERAGE differential proliferation (1 μM PLX4720/control), relative to MEK DD (A375 cells [3]; A375 cells expressing the named kinase-related ORF, 1 μM PLX4720 vs untreated control, normalized to MEK DD): 43.30%
